Data: patent US20170022258A1, “PEPTIDES FOR USE IN THE TREATMENT OF IL-1 RELATED DISEASES AND CONDITIONS” (C4M PHARMACEUTICALS PTY LTD., priority 2011, published 2017)
Like-named read-outs stand apart in the source and are kept apart here. Non-standard residues stand in square brackets, D forms with d. Residues, ends and D or L forms follow the SMILES beside them. No end group written: not given here.

T1: IL-1 receptor (Homo sapiens, UniProt P14778)
T1 construct: confluent human monocytes, which express the IL-1 receptor; endogenous in cells; host or cells: human monocytes
T1 sequence (P14778 18-569): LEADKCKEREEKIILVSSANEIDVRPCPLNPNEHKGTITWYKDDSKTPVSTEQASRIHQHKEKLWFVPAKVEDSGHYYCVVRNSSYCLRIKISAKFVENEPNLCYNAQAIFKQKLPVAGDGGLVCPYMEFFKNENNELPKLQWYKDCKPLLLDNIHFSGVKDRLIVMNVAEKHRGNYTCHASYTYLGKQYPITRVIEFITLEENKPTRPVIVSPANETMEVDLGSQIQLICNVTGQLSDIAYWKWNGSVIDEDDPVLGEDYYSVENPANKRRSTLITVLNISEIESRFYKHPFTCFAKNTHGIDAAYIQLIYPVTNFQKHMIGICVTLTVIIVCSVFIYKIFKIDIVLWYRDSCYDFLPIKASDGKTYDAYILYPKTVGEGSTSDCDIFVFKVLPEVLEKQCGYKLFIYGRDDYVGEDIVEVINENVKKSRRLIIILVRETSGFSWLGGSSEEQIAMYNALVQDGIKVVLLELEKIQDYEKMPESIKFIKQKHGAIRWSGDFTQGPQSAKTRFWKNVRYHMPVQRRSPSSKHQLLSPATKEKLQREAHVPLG

T2: IL-1 receptor (IL-1R) expressed on human monocytes (human, UniProt P14778 18-569)
T2 sequence (looked up): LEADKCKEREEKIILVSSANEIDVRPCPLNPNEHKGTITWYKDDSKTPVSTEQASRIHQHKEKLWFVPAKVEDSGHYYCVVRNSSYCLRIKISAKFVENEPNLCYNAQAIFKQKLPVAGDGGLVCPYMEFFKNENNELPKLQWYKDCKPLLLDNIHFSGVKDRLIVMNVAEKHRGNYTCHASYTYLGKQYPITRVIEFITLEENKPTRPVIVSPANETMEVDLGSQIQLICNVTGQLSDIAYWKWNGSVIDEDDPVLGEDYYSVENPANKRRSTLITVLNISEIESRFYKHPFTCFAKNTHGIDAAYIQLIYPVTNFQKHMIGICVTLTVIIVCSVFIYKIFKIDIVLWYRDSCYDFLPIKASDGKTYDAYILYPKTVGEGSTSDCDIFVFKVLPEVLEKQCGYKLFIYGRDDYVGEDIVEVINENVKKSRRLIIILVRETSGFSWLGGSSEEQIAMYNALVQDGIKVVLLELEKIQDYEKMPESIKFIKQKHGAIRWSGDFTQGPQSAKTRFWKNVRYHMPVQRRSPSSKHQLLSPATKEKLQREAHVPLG


How the values were obtained:
IL-1 receptor = target: T1, IL-1 receptor; test: Radioligand competition binding assay (125I-labeled IL-1α) on human monocytes; details: IL-1 binding antagonism on human monocytes; average of three measurements and standard error
Description: (§1) Radioligand competition binding assays were performed in 96-well plates containing confluent human monocytes, which express the IL-1 receptor. Wells were washed three times with binding buffer, and binding buffer was placed in each well. Peptides were resuspended in dimethyl sulfoxide at 20 mM and diluted in binding buffer to the desired starting concentration. Using a Beckman robotic system, five 3-fold dilutions were prepared, and peptide solution was transferred to duplicate receptor-containing wells. To each well, radioactive ^125Iodine-labeled IL-Ia (Amersham) was added to a final concentration of 40 pM, and the plates were placed on a shaking platform at 4° C. for 2 hr. Plates were washed with PBS using a plate washer, and bound ^125I-labeled IL-la was eluted for 10 min with 0.1 M NaOH and counted in a gamma counter. IC50 values were determined by fitting the data to a two-parameter logistic equation. In all cases, nonspecific binding was determined by the addition of 3 μM of recombinant IL-Ia.

[1] = tested on: IL-1 stimulation of IL-8 in human skin fibroblasts; test: Inhibition of IL-1 induced IL-8 in human fibroblasts; type: cell-based; details: inhibition of IL-1 stimulation of IL-8 in human skin fibroblasts; average of three measurements and standard error; read-out: Binding (IC50 nM)
Description: Inhibition of IL-1 induced IL-8 in human fibroblasts was determined using normal human dermal fibroblast cells cultured in DMEM with 10% fetal calf serum in 48-well plates.
Twenty-four hours before initiation of the experiment, the medium was changed to DMEM with 0.2% fetal calf serum. Each peptide was added to confluent cells, which were then pulsed for 30 min with rIL-I,B (which was obtained from R & D Systems) at 50 pg/ml. The cells were washed four times with PBS, and fresh DMEM/0.2% fetal calf serum was added to each well. After 5 hr of incubation, the culture media were collected and analyzed by ELISA for IL-8 (which was obtained from R & D Systems). Maximal activation, with IL-1 only, was 2530±13 pg/ml of IL-8. Nonspecific activation, determined in the presence of 1000-fold excess IL-1Ra, was 30±9 pg/ml of IL-8 (n=3).

[2] = Solubility of peptide under different solvent conditions; type: physicochemical; details: 30 min room temperature
Description: 100 mg of each peptide was added to 100 ml total of water plus the solvents, and the solution was gently agitated for 30 min at room temperature.

[3] = Stability of peptide once dissolved in solution (1 month); type: physicochemical; details: 1 mg in 5 ml water, bicarbonate and benzyl alcohol (19, 4) or methanol (13, 14); for Stability of peptide once dissolved in solution (at 1 month), Room Temp (month): room temperature
Description: Each of the peptides having the sequences 13, 14, 19 and 4 were tested to determine their stability in a solution containing (preferred composition above) water, bicarbonate and either benzyl alcohol (peptide 19 and 4) or methanol (peptide 13 and 14). Each of the peptides were held for a period of 1 month at either 4° C. or at room temperature.
1 mg of each peptide was added to the water, bicarbonate and either benzyl alcohol or methanol solution and the solution was gently agitated for 1 hour at room temperature before standing at either 4° C. or at room temperature for a period of 1 month.

[4] = Human plasma stability trials; type: in vitro ADME; details: 37° C., 12 hours, read-out: ½ Life human plasma
Description: 1 mg of each peptide was added to the plasma and the solution was gently agitated for 2 minutes at room temperature before standing at 37° C. for a period of 12 hours.

[5] = tested on: thoroughbred having equine laminitis; test: Effect of peptides on equine laminitis (Obel Lameness Grades); type: in vivo, horse; details: for Change in Obel Score: 1 mg intravenously, before vs 24 hours after injection, most negative = greatest improvement; for Duration (days) of effect on laminitis: single 1 mg intravenous, averaged, report by veterinarians
Description: Each of the peptides having the sequences 13, 14, 19 and 4 were also tested to determine their effect on equine laminitis. Each peptide was administered intravenously to a thoroughbred having equine laminitis. The peptides were prepared as compositions containing 1 mg of peptide dissolved in 5 ml of a solution comprising water, bicarbonate and either benzyl alcohol or methanol. The effect of the peptides on equine laminitis was judged by the Obel Lameness Grades, which is a system of rating degrees of lameness resulting from laminitis. […] Obel Grade III horses do resist having a foreleg lifted, and are reluctant to walk. Obel Grade IV horses will walk only if forced. The Obel Score for each of the horses was measured before administration of the peptide and 24 hours after injection of the peptide. […] The effect in reducing laminitis which was caused by one single injection of the peptides on laminitis was short-lived. Therefore, the duration of the effect of the peptides in reducing laminitis was further assessed by attending veterinarians.

[6] = target: T2, IL-1 receptor (IL-1R) expressed on …; test: cell-based or functional assay
[7] = target: T2, IL-1 receptor (IL-1R) expressed on …; test: radioligand competition, 40 pM 125I-IL-1α on confluent human monocytes
Description: as §1, with “¹²⁵Iodine-labeled” for “^125Iodine-labeled”, “¹²⁵I-labeled” for “^125I-labeled”, “IC₅₀” for “IC50”

[8] = benzyl alcohol (0.1-1%) in water, benzyl alcohol (0.1-1%), 100 mg peptide in 100 ml, read-out: Solubility: Benzyl Alcohol
[9] = hydrochloric acid (0.1-1%) in water, hydrochloric acid (0.1-1%), 100 mg peptide in 100 ml water plus solvent, read-out: Solubility: Acid
[10] = methanol (1-10%) in water, methanol (1-10%), 100 mg peptide in 100 ml, read-out: Solubility: Methanol
[11] = sodium bicarbonate (0.1-1%) in water, sodium bicarbonate (0.1-1%), 100 mg peptide in 100 ml, read-out: Solubility: Base

Molecule	IC50 (IL-1 receptor)	IC50 [1]	solubility at 30 min [2, 8]	solubility at 30 min [2, 9]	solubility at 30 min [2, 10]	solubility at 30 min [2, 11]	Stability of peptide once dissolved in solution (at 1 month), 4° C. (month) [3]	Stability of peptide once dissolved in solution (at 1 month), Room Temp (month) [3]	half-life [4]	Change in Obel Score [5]	Duration (days) of effect on laminitis [5]	IC50, in vitro inhibition of IL-1 stimulation of IL-8 in human skin fibroblasts (rIL-1β 50 pg/ml, IL-8 ELISA) [6]	IC50 [7]
CC(=O)N[C@H](CC(C)C)C(=O)N1CCC[C@@H]1C(=O)N[C@H](CC(C)C)C(=O)N[C@H](C)C(=O)N[C@H](Cc1ccc(O)cc1)C(=O)N1CCC[C@@H]1C(=O)N[C@H](CCC(N)=O)C(=O)N[C@H](Cc1c[nH]c2ccccc12)C(=O)N[C@H](Cc1ccc(O)cc1)C(=O)N[C@H](Cc1ccc(O)cc1)C(=O)N[C@H](C)C(=O)N[C@H](CC(N)=O)C(=O)N[C@H](CO)C(=O)N[C@H](CCC(=O)O)C(=O)N[C@H](CCC(=O)O)C(=O)N[C@H](Cc1c[nH]c2ccccc12)C(=O)N[C@@H](C(=O)N[C@H](Cc1ccccc1)C(=O)N1CCC[C@@H]1C(=O)N[C@@H](C(=O)N[C@H](CCC(=O)O)C(=O)O)[C@H](C)O)[C@H](C)O [SEQ ID NO. 14] (Ac-[dL][dP][dL][dA][dY][dP][dQ][dW][dY][dY][dA][dN][dS][dE][dE][dW][dT][dF][dP][dT][dE]-OH; C-terminus assumed)	9.2 nM	11 nM	< 1000 µg/mL	< 1000 µg/mL	> 1000 µg/mL	< 1000 µg/mL	78%	18%	333 min	−1.1	2 days		
CC(=O)N[C@@H](Cc1ccccc1)C(=O)N[C@@H](CCC(=O)O)C(=O)N[C@@H](Cc1c[nH]c2ccccc12)C(=O)N[C@H](C(=O)N1CCC[C@H]1C(=O)NCC(=O)N[C@@H](Cc1ccc(O)cc1)C(=O)N[C@@H](Cc1c[nH]c2ccccc12)C(=O)N[C@@H](CCC(N)=O)C(=O)N1CCC[C@H]1C(=O)N[C@@H](Cc1ccc(O)cc1)C(=O)N[C@@H](C)C(=O)N[C@@H](CC(C)C)C(=O)N1CCC[C@H]1C(=O)N[C@@H](CC(C)C)C(=O)O)[C@@H](C)O [SEQ ID NO. 19, Ac FEWTPGYWQPYALPL, reference compound] (Ac-FEWTPGYWQPYALPL-OH; C-terminus assumed)		10 nM	> 1000 µg/mL	< 1000 µg/mL		< 1000 µg/mL	95%	48%	49 min	−2.1	2 days		
CC(=O)N[C@@H](CCC(=O)O)C(=O)N[C@H](C(=O)N1CCC[C@H]1C(=O)N[C@@H](Cc1ccccc1)C(=O)N[C@H](C(=O)N[C@@H](Cc1c[nH]c2ccccc12)C(=O)N[C@@H](CCC(=O)O)C(=O)N[C@@H](CCC(=O)O)C(=O)N[C@@H](CO)C(=O)N[C@@H](CC(N)=O)C(=O)N[C@@H](C)C(=O)N[C@@H](Cc1ccc(O)cc1)C(=O)N[C@@H](Cc1ccc(O)cc1)C(=O)N[C@@H](Cc1c[nH]c2ccccc12)C(=O)N[C@@H](CCC(N)=O)C(=O)N1CCC[C@H]1C(=O)N[C@@H](Cc1ccc(O)cc1)C(=O)N[C@@H](C)C(=O)N[C@@H](CC(C)C)C(=O)N1CCC[C@H]1C(=O)N[C@@H](CC(C)C)C(=O)O)[C@@H](C)O)[C@@H](C)O [SEQ ID NO. 13, reference compound] (Ac-ETPFTWEESNAYYWQPYALPL-OH; C-terminus assumed)	11 nM	11 nM	< 1000 µg/mL	< 1000 µg/mL	> 1000 µg/mL	< 1000 µg/mL	21%	1%	46 min	−0.5	1 days		
Ac-FEWTPGYWQPYALPL (also called peptide 19) [peptide of SEQ ID NO: 19 (Ac FEWTPGYWQPYALPL)]												10 nM	7.1 nM
Ac-DGYDRWRQSGERYWQPYALPL (also called peptide 20) [peptide of SEQ ID NO: 20 (Ac-DGYDRWRQSGERYWQPYALPL)]												19 nM	8.1 nM
Ac-FTWEESNAYYWQPYALPL (also called peptide 15) [peptide of SEQ ID NO: 15 (Ac-FTWEESNAYYWQPYALPL)]												16 nM	20 nM
Ac-TANVSSFEWTPGYWQPYALPL (also called peptide 17) [peptide of SEQ ID NO: 17 (Ac-TANVSSFEWTPGYWQPYALPL)]												76 nM	7.6 nM
